Measured values as given in ChEMBL document CHEMBL1155810, “Synthesis, structure-activity relationships, and biological profiles of a quinazolinone class of histamine H3 receptor inverse agonists” (J Med Chem, 2008).
Each block holds one molecule with its values, some of them ahead of it. The source made the active and inactive calls. The calls are words filed in the database; no cut-off is given here.

Experiments:
[1] = molecular target: Histamine H3 receptor (Homo sapiens, UniProt Q9Y5N1); test: Inverse agonist activity at human histamine H3 receptor expressed in CHO-K1 cells assessed as inhibition of N-alpha-methylhistamine-induced [35S]GTPgammaS binding; type: functional, cell-based
[2] = molecular target: Voltage-gated inwardly rectifying potassium channel KCNH2 (Homo sapiens, UniProt Q12809)
[3] = species: Mus musculus; test: Ex vivo receptor occupancy of […] histamine H3 receptor in MDR1a-deficient CF1 mouse plasma; type: functional
[4] = Half life in Beagle dog at 1 mg/kg, iv; type: ADME, organism-based, Canis lupus familiaris; parameters: dose 1 mg/kg, route intravenous; conditions: in vivo
[5] = Cmax in Beagle dog at 3 mg/kg, po; type: ADME, organism-based, Canis lupus familiaris; parameters: dose 3 mg/kg, route oral; conditions: in vivo
[6] = molecular target: Cytochrome P450 2C9 (Homo sapiens, UniProt P11712); test: Inhibition of CYP2C9; type: ADME
[7] = Cmax in Sprague-Dawley rat at 3 mg/kg, po; type: ADME, organism-based; parameters: dose 3 mg/kg, route oral; conditions: in vivo
[8] = AUC (0 to infinity) in Sprague-Dawley rat at 3 mg/kg, po; type: ADME, organism-based; parameters: time infinity, dose 3 mg/kg, route oral; conditions: plasma
[9] = molecular target: Histamine H3 receptor (Rattus norvegicus, UniProt Q9QYN8); test: Displacement of [3H]N-alpha-methylhistamine from rat histamine H3 receptor expressed in HEK293 cells coexpressed with CRE-beta-lactamase; type: cell-based
[10] = Plasma clearance in Beagle dog at 1 mg/kg, iv; type: ADME, organism-based, Canis lupus familiaris; parameters: dose 1 mg/kg, route intravenous
[11] = Half life in Sprague-Dawley rat at 1 mg/kg, iv; type: ADME, organism-based; parameters: dose 1 mg/kg, route intravenous; conditions: in vivo
[12] = molecular target: Histamine H4 receptor (Homo sapiens, UniProt Q9H3N8); test: Inhibition of human histamine H4 receptor
[13] = molecular target: T1, Cytochrome P450 2A6 (Homo sapiens, UniProt P11509); test: Inhibition of CYP2A6; type: ADME
T1 sequence (P11509 whole entry): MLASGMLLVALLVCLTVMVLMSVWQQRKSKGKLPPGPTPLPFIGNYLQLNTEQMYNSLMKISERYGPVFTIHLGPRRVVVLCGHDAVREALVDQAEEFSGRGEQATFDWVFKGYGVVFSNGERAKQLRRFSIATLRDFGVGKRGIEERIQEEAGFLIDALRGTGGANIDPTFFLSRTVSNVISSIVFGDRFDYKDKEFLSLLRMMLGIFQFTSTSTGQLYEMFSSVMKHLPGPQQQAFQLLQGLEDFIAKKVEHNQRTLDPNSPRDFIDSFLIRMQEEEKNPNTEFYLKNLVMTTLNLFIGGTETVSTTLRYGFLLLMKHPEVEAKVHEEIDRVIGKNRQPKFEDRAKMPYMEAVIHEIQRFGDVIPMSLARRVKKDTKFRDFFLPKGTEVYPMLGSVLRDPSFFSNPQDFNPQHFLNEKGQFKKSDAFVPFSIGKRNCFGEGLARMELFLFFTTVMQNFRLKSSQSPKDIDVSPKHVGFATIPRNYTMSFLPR

[14] = species: Mus musculus; test: Ex vivo receptor occupancy of […] histamine H3 receptor in wild type MDR1a-proficient CF1 mouse plasma; type: functional
[15] = tested on: Brain; test: Drug level in Sprague-Dawley rat brain at 10 mg/kg, po after 2 hrs; type: ADME, organism-based; parameters: dose 10 mg/kg, route oral; conditions: in vivo
[16] = Half life in rhesus monkey at 1 mg/kg, iv; type: ADME, organism-based, Macaca mulatta; parameters: dose 1 mg/kg, route intravenous; conditions: in vivo
[17] = molecular target: T2, Cytochrome P450 1A2 (Homo sapiens, UniProt P05177); test: Inhibition of CYP1A2; type: ADME
T2 sequence (P05177 whole entry): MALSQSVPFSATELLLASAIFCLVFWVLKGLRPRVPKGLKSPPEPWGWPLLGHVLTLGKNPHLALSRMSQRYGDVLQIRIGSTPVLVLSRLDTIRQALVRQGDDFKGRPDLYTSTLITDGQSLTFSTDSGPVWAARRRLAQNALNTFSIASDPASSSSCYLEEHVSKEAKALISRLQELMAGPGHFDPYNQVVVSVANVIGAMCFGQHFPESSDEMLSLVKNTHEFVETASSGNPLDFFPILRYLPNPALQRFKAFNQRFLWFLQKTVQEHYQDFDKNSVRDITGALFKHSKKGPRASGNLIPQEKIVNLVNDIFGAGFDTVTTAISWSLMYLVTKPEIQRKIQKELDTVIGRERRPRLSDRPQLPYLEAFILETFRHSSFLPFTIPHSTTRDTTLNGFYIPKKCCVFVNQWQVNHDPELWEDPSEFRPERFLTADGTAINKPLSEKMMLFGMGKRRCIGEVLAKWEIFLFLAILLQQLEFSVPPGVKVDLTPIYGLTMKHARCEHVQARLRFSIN

[18] = Ratio of drug level in MDR1a-deficient CF1 mouse brain to plasma at 10 mg/kg, po after 2 hrs; type: ADME, organism-based; parameters: dose 10 mg/kg, route oral; conditions: read-out: BPR
[19] = molecular target: Histamine H2 receptor (Homo sapiens, UniProt P25021); test: Inhibition of human histamine H2 receptor
[20] = AUC (0 to infinity) in Beagle dog at 3 mg/kg, po; type: ADME, organism-based, Canis lupus familiaris; parameters: time infinity, dose 3 mg/kg, route oral; conditions: plasma
[21] = molecular target: Histamine H1 receptor (Homo sapiens, UniProt P35367); test: Inhibition of human histamine H1 receptor
[22] = tested on: Rattus norvegicus; test: Ex vivo increase in receptor occupancy of histamine H3 receptor in Sprague-Dawley rat brain at 30 mg/kg, po by autoradiography; type: functional
[23] = species: Mus musculus; test: Ex vivo receptor occupancy of […] histamine H3 receptor in MDR1a-deficient CF1 mouse brain; type: functional
[24] = molecular target: Cytochrome P450 2C19 (Homo sapiens, UniProt P33261); test: Inhibition of CYP2C19; type: ADME
[25] = Cmax in rhesus monkey at 3 mg/kg, po; type: ADME, organism-based, Macaca mulatta; parameters: dose 3 mg/kg, route oral; conditions: in vivo
[26] = Oral bioavailability in Sprague-Dawley rat at 3 mg/kg; type: ADME, organism-based; conditions: in vivo
[27] = Plasma clearance in rhesus monkey at 1 mg/kg, iv; type: ADME, organism-based, Macaca mulatta; parameters: dose 1 mg/kg, route intravenous
[28] = Volume of distribution at steady state in Beagle dog at 1 mg/kg, iv; type: ADME, organism-based, Canis lupus familiaris; parameters: dose 1 mg/kg, route intravenous; conditions: in vivo, read-out: Vdss
[29] = Volume of distribution at steady state in rhesus monkey at 1 mg/kg, iv; type: ADME, organism-based, Macaca mulatta; parameters: dose 1 mg/kg, route intravenous; conditions: in vivo, read-out: Vdss
[30] = species: Mus musculus; test: Ex vivo receptor occupancy of […] histamine H3 receptor in wild type MDR1a-proficient CF1 mouse brain; type: functional
[31] = molecular target: Cytochrome P450 2D6 (Homo sapiens, UniProt P10635); test: Inhibition of CYP2D6; type: ADME
[32] = molecular target: Cytochrome P450 3A4 (Homo sapiens, UniProt P08684); test: Inhibition of CYP3A4; type: ADME
[33] = molecular target: Histamine receptor H3 (Macaca mulatta, UniProt Q865E1); test: Displacement of [3H]N-alpha-methylhistamine from rhesus monkey histamine H3 receptor expressed in HEK293T cells; type: cell-based, HEK-293T
[34] = Plasma concentration in Sprague-Dawley rat at 10 mg/kg, po after 2 hrs; type: ADME, organism-based; parameters: dose 10 mg/kg, route oral
[35] = Ratio of drug level in wild type MDR1a-proficient CF1 mouse brain to plasma at 10 mg/kg, po after 2 hrs; type: ADME, organism-based; parameters: dose 10 mg/kg, route oral; conditions: read-out: BPR
[36] = AUC (0 to infinity) in rhesus monkey at 3 mg/kg, po; type: ADME, organism-based, Macaca mulatta; parameters: time infinity, dose 3 mg/kg, route oral; conditions: plasma
[37] = Volume of distribution at steady state in Sprague-Dawley rat at 1 mg/kg, iv; type: ADME, organism-based; parameters: dose 1 mg/kg, route intravenous; conditions: in vivo, read-out: Vdss
[38] = Oral bioavailability in Beagle dog at 3 mg/kg; type: ADME, organism-based, Canis lupus familiaris; conditions: in vivo
[39] = Oral bioavailability in rhesus monkey at 3 mg/kg; type: ADME, organism-based, Macaca mulatta; conditions: in vivo
[40] = Plasma clearance in Sprague-Dawley rat at 1 mg/kg, iv; type: ADME, organism-based; parameters: dose 1 mg/kg, route intravenous
[41] = Ratio of drug level in Sprague-Dawley rat brain to plasma; type: ADME; conditions: read-out: BPR
[42] = tested on: Rattus norvegicus; test: Effect on histamine release in Sprague-Dawley rat brain assessed as increase in tele-methylhistamine level at 30 mg/kg, po after 2 hrs; type: functional, organism-based; parameters: dose 30 mg/kg

Chain of Voltage-gated inwardly rectifying potassium channel KCNH2 (Q12809 whole entry): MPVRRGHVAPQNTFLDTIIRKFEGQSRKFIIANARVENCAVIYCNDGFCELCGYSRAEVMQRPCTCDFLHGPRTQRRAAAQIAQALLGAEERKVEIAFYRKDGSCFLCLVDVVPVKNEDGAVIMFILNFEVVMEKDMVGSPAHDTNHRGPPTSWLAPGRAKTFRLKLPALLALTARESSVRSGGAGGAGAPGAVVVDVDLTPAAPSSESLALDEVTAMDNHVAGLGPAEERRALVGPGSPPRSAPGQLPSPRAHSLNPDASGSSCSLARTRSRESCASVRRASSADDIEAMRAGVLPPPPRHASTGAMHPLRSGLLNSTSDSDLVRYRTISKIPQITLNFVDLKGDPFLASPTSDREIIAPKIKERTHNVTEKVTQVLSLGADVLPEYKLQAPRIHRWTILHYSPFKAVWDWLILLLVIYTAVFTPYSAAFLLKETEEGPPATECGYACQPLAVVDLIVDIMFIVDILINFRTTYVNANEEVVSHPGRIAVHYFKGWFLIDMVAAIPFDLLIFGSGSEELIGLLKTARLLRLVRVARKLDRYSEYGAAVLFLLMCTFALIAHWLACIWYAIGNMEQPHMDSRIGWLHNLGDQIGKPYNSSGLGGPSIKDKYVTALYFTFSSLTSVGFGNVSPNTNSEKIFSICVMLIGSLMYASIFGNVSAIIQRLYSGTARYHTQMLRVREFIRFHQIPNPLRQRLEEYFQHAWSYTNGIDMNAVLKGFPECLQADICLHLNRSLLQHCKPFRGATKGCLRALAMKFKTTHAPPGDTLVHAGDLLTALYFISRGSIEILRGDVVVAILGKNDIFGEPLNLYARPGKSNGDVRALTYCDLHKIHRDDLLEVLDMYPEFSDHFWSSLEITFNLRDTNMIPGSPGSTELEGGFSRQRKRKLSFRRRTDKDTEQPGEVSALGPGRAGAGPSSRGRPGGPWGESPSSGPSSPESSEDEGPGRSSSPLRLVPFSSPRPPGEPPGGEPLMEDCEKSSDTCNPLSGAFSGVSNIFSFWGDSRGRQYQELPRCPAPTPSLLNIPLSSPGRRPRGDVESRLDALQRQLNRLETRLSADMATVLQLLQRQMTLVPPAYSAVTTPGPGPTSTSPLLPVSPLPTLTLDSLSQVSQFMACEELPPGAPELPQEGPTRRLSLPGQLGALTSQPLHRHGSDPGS
Chain of Histamine H3 receptor (Homo sapiens, UniProt Q9Y5N1) (Q9Y5N1 whole entry): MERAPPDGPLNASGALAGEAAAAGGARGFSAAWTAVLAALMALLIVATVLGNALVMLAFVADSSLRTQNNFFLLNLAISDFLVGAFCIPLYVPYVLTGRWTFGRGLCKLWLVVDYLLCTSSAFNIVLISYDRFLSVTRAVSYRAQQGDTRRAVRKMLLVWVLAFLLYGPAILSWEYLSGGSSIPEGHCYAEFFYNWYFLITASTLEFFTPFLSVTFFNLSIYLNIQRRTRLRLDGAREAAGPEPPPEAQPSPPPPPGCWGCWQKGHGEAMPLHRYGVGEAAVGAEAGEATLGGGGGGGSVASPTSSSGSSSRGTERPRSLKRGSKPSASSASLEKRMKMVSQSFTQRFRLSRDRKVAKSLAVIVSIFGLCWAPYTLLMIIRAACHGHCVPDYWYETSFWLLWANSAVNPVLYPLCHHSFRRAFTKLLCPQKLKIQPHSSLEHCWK
Chain of Cytochrome P450 3A4 (P08684 whole entry): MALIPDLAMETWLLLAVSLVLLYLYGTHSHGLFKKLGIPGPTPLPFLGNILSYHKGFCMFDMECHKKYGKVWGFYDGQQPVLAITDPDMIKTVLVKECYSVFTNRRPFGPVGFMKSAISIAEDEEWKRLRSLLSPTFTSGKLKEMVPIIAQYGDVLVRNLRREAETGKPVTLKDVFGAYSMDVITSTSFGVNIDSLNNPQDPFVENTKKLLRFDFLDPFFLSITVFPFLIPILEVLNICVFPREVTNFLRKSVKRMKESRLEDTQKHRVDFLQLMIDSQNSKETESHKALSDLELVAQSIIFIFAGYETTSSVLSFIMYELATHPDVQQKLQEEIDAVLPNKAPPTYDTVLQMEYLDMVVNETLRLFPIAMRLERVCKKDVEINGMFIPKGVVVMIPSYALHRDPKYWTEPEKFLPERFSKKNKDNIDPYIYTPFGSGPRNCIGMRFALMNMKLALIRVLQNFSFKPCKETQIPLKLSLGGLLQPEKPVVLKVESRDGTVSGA
Chain of Cytochrome P450 2C9 (P11712 whole entry): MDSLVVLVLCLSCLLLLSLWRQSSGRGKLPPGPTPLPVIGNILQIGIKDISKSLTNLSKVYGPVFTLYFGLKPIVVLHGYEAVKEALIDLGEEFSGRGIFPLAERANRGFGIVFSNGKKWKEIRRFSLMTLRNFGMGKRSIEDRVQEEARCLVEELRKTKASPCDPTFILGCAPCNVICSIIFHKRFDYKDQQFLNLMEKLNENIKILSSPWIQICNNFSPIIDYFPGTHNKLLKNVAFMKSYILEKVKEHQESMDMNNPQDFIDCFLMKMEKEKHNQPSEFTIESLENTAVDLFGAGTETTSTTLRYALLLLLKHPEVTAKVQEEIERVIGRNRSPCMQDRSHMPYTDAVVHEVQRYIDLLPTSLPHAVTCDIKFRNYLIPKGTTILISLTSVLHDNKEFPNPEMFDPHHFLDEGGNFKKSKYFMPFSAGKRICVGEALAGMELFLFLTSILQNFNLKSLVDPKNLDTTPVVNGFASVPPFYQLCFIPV
Chain of Histamine H2 receptor (P25021 whole entry): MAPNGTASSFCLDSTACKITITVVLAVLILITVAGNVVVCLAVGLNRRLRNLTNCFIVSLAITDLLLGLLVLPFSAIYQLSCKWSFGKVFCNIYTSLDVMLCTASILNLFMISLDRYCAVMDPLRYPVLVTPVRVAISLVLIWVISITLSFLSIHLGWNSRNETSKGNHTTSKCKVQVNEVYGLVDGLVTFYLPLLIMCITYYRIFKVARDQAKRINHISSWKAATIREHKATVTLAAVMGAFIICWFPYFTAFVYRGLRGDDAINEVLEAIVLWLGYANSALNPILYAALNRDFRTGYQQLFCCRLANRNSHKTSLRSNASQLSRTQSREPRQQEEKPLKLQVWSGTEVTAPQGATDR
Chain of Histamine H1 receptor (P35367 whole entry): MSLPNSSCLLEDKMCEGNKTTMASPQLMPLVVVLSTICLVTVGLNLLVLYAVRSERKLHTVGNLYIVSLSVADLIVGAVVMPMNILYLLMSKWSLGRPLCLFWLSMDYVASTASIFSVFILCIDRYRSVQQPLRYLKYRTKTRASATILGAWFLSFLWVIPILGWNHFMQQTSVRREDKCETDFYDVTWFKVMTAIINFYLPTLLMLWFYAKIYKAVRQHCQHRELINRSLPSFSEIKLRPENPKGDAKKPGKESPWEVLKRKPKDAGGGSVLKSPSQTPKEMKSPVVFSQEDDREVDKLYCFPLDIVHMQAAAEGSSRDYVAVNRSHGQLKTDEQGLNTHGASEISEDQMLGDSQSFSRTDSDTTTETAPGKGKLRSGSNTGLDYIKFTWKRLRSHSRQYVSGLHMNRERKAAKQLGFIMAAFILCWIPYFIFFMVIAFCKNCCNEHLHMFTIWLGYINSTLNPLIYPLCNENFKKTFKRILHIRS
Chain of Histamine H3 receptor (Rattus norvegicus, UniProt Q9QYN8) (Q9QYN8 whole entry): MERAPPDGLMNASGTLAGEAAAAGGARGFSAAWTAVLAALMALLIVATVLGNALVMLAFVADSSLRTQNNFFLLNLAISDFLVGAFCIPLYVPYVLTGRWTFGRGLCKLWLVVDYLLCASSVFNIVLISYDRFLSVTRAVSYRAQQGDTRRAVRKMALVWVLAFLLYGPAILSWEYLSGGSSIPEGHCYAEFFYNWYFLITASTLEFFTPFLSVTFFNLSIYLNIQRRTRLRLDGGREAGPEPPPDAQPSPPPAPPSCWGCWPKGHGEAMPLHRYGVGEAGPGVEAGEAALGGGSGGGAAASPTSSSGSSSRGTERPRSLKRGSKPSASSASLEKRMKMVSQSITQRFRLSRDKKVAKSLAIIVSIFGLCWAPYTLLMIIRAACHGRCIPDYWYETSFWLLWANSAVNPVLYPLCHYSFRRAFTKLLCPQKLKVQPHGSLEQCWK
Chain of Cytochrome P450 2C19 (P33261 whole entry): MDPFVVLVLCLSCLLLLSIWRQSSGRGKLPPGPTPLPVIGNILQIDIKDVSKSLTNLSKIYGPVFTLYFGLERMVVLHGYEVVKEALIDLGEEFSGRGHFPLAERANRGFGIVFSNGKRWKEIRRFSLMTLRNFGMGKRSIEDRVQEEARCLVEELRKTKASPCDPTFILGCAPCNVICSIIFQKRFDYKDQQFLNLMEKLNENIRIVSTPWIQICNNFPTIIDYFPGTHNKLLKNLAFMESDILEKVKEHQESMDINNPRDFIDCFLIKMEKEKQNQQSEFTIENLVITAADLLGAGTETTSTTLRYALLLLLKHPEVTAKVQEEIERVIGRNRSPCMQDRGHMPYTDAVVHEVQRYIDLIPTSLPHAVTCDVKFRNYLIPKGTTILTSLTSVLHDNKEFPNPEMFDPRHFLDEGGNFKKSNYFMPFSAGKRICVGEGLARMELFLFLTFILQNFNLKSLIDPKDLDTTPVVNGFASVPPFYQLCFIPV
Chain of Cytochrome P450 2D6 (P10635 whole entry): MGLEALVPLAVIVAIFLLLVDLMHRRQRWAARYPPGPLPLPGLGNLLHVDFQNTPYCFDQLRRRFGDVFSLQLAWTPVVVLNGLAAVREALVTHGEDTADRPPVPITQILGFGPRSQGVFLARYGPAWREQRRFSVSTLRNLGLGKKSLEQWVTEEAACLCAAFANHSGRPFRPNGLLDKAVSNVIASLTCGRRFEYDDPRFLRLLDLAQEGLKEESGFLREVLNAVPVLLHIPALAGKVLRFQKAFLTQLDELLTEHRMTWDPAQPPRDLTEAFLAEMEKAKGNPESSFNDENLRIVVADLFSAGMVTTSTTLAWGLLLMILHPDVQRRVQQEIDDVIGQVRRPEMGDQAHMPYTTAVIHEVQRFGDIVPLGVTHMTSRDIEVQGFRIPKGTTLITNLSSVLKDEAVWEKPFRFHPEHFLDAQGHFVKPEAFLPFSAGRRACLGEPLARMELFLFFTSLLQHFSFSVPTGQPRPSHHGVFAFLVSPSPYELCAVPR
Chain of Histamine receptor H3 (Q865E1 whole entry): as the sequence (Q9Y5N1 whole entry) above, with D148N, A240G, V282A, A289T, T290A, V300A, H442Q counted along it

Structure (SMILES): Cc1nc2ccccc2c(=O)n1-c1ccc(OCCCN2CCCCC2C)cc1 (configuration not stated)
IC50 [1]: 11 nM

Structure (SMILES): Cc1nc2ccccc2c(=O)n1-c1ccc(OCCCN2CCCCCCC2)cc1
IC50 [1]: 10 nM

Structure (SMILES): CCN(CC)CCCOc1ccc(-n2c(C)nc3ccccc3c2=O)cc1
IC50 [1]: 33 nM

Structure (SMILES): Cc1nc2ccccc2c(=O)n1-c1ccc(OCCCN2CCC[C@@H]2C)cc1
IC50 [2]: 6000 nM | IC50 [1]: 2.2 nM

Structure (SMILES): Cc1nc2ccccc2c(=O)n1-c1ccc(OCCCN2CCCCCC2)cc1
IC50 [1]: 1.6 nM

Structure (SMILES): Cc1nc2ccccc2c(=O)n1-c1ccc(OCCCN2CCC(C)C2)cc1 (configuration not stated)
IC50 [2]: 6400 nM | IC50 [1]: 5.8 nM

Structure (SMILES): Cc1nc2ccccc2c(=O)n1-c1ccc(OCCCN2CCC[C@H]2C)cc1
IC50 [2]: > 10000 nM | IC50 [1]: 4.3 nM

Structure (SMILES): Cc1nc2cccc(C(F)(F)F)c2c(=O)n1-c1ccc(OCCCN2CCCC2)cc1 [MK-0249]
Occ90 [3]: 40 nM | half-life [4]: 9.9 h | Cmax [5]: 1800 nM | IC50 [6]: > 21000 nM | Cmax [7]: 1010 nM | AUC(0-inf) [8]: 6.35 µM·h | Ki [9]: 33 nM | clearance [10]: 19 mL/min/kg | half-life [11]: 5.5 h | IC50 [12]: > 10000 nM | IC50 [13]: > 27000 nM | Occ90 [14]: 1.17 µM | Drug uptake [15]: 1.67 nmol/g | half-life [16]: 5.4 h | IC50 [17]: > 27000 nM | Kp at 2 h [18]: 14 | IC50 [19]: > 10000 nM | AUC(0-inf) [20]: 11.8 µM·h | IC50 [21]: > 10000 nM | Activity [22]: >90% | Occ90 [23]: 2 nmol/g | IC50 [24]: > 27000 nM | Cmax [25]: 440 nM | bioavailability [26]: 65% | clearance [27]: 18 mL/min/kg | Vd [28]: 9.7 L/kg | Vd [29]: 6 L/kg | Occ90 [30]: 2 nmol/g | IC50 [31]: > 27000 nM | IC50 [32]: > 27000 nM | Ki [33]: 4.3 nM | concentration at 2 h [34]: 1580 nM | Kp at 2 h [35]: 0.8 | AUC(0-inf) [36]: 1.84 µM·h | Vd [37]: 4.4 L/kg | bioavailability [38]: > 100% | bioavailability [39]: 28% | clearance [40]: 12 mL/min/kg | Kp [41]: 1.1 | Activity [42]: Active

The next lines start with results.

IC50 [1]: 20 nM
Structure (SMILES): Cc1nc2ccccc2c(=O)n1-c1ccc(OCCCN2[C@H](C)CC[C@H]2C)cc1

IC50 [1]: 23 nM
Structure (SMILES): Cc1nc2ccccc2c(=O)n1-c1ccc(OCCCN2CCC(C)CC2)cc1

IC50 [1]: 28 nM
Structure (SMILES): Cc1nc2ccccc2c(=O)n1-c1ccc(OCCCN2CC(C)CC(C)C2)cc1 (configuration not stated)

IC50 [1]: 41 nM
Structure (SMILES): Cc1nc2ccccc2c(=O)n1-c1ccc(OCCCN2CCC[C@@H](C)C2)cc1

IC50 [1]: 3.1 nM
Structure (SMILES): Cc1nc2ccccc2c(=O)n1-c1ccc(OCCCN2CCCCC2)cc1

IC50 [1]: 0.72 nM
Structure (SMILES): Cc1nc2ccccc2c(=O)n1-c1ccc(OCCCN2CCC[C@H](C)C2)cc1
IC50 [2]: 5300 nM
